Results reported in patent publication US20060258750A1, “Use of bicyclo[2.2.1]heptane derivatives for the preparation of neuroprotective pharmaceutical compositions” (priority 2003, published 2006).
Entries after “also recorded” stand apart in the source; their conditions may differ. Marks after values point to notes of the source that are not given here.

Tests used:
[1] = single 0.7 mg/kg oral treatment; cited from earlier work
central 5-HT2A receptors = central 5-HT2A receptors (Homo sapiens, UniProt P28223); conditions: cited from earlier work
Chain of central 5-HT2A receptors (P28223 whole entry): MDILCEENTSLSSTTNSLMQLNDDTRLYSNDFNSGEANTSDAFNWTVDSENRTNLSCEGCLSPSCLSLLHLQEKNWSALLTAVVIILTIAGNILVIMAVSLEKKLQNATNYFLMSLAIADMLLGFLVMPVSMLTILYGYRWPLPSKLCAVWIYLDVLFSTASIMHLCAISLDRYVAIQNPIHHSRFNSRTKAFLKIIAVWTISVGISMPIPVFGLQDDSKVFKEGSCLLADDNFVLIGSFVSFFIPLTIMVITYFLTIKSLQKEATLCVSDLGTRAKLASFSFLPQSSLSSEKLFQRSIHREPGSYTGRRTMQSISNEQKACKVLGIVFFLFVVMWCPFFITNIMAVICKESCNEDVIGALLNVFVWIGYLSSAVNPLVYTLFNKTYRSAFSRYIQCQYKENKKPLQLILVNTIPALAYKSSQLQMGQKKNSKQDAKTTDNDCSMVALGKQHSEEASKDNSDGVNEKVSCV

[2] = 1 and 10 mg/kg ip.; cited from earlier work
[3] = cited from earlier work
[4] = test system: hippocampal CA1 pyramidal cell death; assay: Global cerebral ischemia by 3 min bilateral carotid artery occlusion (BCO): hippocampal CA1 neuronal damage score; type: in vivo, Mongolian gerbils
Protocol: (§1) In our experiments male Mongolian gerbils weighing 50-80 g were used. Deramciclane was administered at 3×30 mg/kg intraperitoneally 60 min before, 30 and 90 min after surgery. Deramciclane was suspended in 0.4% methyl-cellulose solution. In ether narcosis, the right and left common carotid arteries were exposed through an anterior midline cervical incision and isolated from the vagus nerves and the surrounding tissues. Full arrest of carotid blood flow was achieved by tightening an aneurysm clip for 3 min. During surgery the body temperature of the animals was kept at the individual preoperative level (37.5±0.5° C.) with the help of a heating pad and a heating lamp.
After behavioural testing the animals were anesthetized with 60 mg/kg i.p. pentobarbital (10 ml/kg) and perfused through the heart first with saline then with a fixative solution containing 0.1% glutaraldehyde, 4% paraformaldehyde, and 0.2% picric acid in 0.1 M phosphate buffer pH 7.4 for 30 min. The brain was removed from the skull and post-fixed for at least 1 week at 4° C. in the same fixative solution.
Alternate coronal sections of 60 μm thickness were cut from different levels of the dorsal hippocampus by a microtone. The sections were repeatedly washed in 0.1 M phosphate buffer then stained by silver impregnation.
The sections were examined under light microscopy and the overall neuronal damage in the hippocampal CA1 subfield in both hippocampi was scored on a 6-point scale: (0) undamaged, (1)<10%, (2) 10-30%, (3) 30-50%, (4) 50-70%, (5) 70-90%, and (6) 90-100% cell loss. Group differences between drug-treated and vehicle-treated groups were statistically analysed by Mann-Whitney U-test.

[5] = single oral dose of 3 mg/kg; cited from earlier work
[6] = 10 and 30 mg/kg after oral treatment; cited from earlier work
central 5-HT2C receptors = central 5-HT2C receptors (Homo sapiens, UniProt P28335); conditions: cited from earlier work
Chain of central 5-HT2C receptors (P28335 33-458): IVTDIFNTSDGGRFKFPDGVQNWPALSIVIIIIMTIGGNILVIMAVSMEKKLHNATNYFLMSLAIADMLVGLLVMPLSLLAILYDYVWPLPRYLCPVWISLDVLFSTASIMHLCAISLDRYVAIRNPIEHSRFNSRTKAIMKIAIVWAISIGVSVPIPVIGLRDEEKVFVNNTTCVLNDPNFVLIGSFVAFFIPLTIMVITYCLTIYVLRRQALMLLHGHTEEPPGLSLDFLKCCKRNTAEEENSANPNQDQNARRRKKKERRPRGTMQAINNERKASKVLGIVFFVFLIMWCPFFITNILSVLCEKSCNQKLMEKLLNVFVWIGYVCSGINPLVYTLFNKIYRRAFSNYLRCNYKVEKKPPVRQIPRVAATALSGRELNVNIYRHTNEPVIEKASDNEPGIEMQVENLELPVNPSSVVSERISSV

Mongolian gerbils = assay: Global cerebral ischemia (BCO): locomotor activity in symmetrical Y-maze four days after surgery; type: in vivo
Protocol: as §1
The Mongolian gerbils were placed in the centre of the maze then the number of entries into the three arms was recorded for 5 min. By definition, the animal performed an arm entry when it entered the arm and proceeded at least the distance of its body length. The gerbil was considered to exit the arm when it left it fully. Differences between groups were statistically evaluated by Kruskal-Wallis ANOVA. In case of p<0.05 significance Mann-Whitney U-test was used for paired comparisons.

[7] = 1 and 10 mg/kg after oral administration; cited from earlier work
[8] = test system: brain damage after transient global cerebral ischaemia; conditions: global cerebral ischaemia in gerbils; cited from earlier work
[9] = 3 × 30 mg/kg i.p., compared to the BCO group
[10] = in the applied dose (3 × 30 mg/kg i.p.)

Structure (SMILES) | time spent with social interactions [1] | binding to central 5-HT2A receptors (in words) (central 5-HT2A receptors) | antidepressant activity in learned helplessness test [2] | anxiety caused by CCK in elevated plus maze test ([3]; CCK-induced anxiety) | activity in elevated plus maze test ([3]; in vivo) | CA1 cell death (score) ([4]; 3 × 30 mg/kg i.p. (60 min before, 30 and 90 min after surgery), 6-point scale 0-6, BCO control 4.90) | Effect % (CA1 cell death) [4, 9] | proportion of cell death in the hippocampal CA1 region (in words) [4, 10] | activity in light-dark test [5] | activity in marble burying test [6] | binding to central 5-HT2C receptors (in words) (central 5-HT2C receptors) | Number of arm entries (Mongolian gerbils; 3 × 30 mg/kg i.p., Y-maze, 5 min, four days after surgery, sham 40.25, BCO 65.44) | Effect % (number of arm entries) (Mongolian gerbils; [9]) | locomotor activity of animals (in words) (Mongolian gerbils; [10]) | activity in Vogel punished drinking test [7] | neuroprotective activity [8]
CN(C)CCO[C@]1(c2ccccc2)C[C@H]2CC[C@]1(C)C2(C)C [deramciclane, (1R,2S,4R)-(−)-2-(2-dimethylaminoethoxy)-2-phenyl-1,7,7-trimethyl-bicyclo[2.2.1]heptane] | increased | binds primarily | produced antidepressant activity | antagonized | ineffective | 0.89** score | −82% | significantly reduced | active | active | binds primarily | 38.78** | −100% | decreased the locomotor activity of animals into the normal range | active | –
Cc1nc2sccn2c(=O)c1CCN1CCC(=C(c2ccc(F)cc2)c2ccc(F)cc2)CC1 [ritanserin] | – | – | – | – | – | – | – | – | – | – | – | – | – | – | – | did not show neuroprotective activity; also recorded: did not produce neuroprotective effect
